# According to US8354398B2, “Substituted isoxazole compounds” (Bristol-Myers Squibb Company, priority 2009, dated 2013):
# Tests used:
# S1P3 [1] = target: T1, S1P3 (Homo sapiens, UniProt Q99500); test: Method B: Receptor [35S] GTPγS SPA Binding Assay, membranes from S1P3 transfected CHO cells; type: biochemical; design: expressed in transfected cells; host or cells: CHO cells; settings: S1P3 transfected CHO cell membranes, NC = a satisfactory dose response curve was not obtained
# Method: (§1) Membranes prepared from S1P1 or S1P3 transfected CHO cells (2 μg protein) were incubated in 96-well white plates (CORNING® 3693) with test compounds diluted in DMSO, in 50 μl of reaction mixture containing 7.5 μl WGA-PVT beads (20 mg/ml), and 5 μM GDP, 20 mM HEPES pH 7.4, 100 mM NaCl, 1 mM EDTA, 5 mM MgCl2, 10 μg/ml saponin, 0.1% BSA, and 1 μM leupeptin. The assay was initiated with the addition of 25 μl of 0.2 nM [^35S]-GTPγS (1250 Ci/mmol; NEN) in assay buffer. After 90 min incubation at room temperature, spin the plate at 1000 rpm for 5 min. The bound radionuclides were measured at TOPCOUNT®, expressed as % response relative to S1P (1 μM) activation. Data was analyzed using the four parameter logistic equation in Excel. The four parameters in the equation, Y=A+((B−A)/(1+((EC50/X)^D))), are described as following: A is the Y value (agonist activity) at the bottom plateau; B is the Y value at the top plateau; EC50 is the X value (agonist concentration) when the response is halfway between bottom and top; D is Hill coefficient. Curves were not generated for compounds having Ymax values were below 50%.
# (§2) Compounds of the present invention and Comparative Compound A were tested in the Receptor [^35S] GTPγS Binding Assays (Method A) and Receptor [35S] In some instances, the value is an average of multiple experiments where N is the number of experiments conducted that provided satisfactory dose response curves. When more than one batch of an example was tested, the value presented is from a batch which allowed a comparison of GTPγS S1P1 and GTPγS S1P3 in which the most number of experiments were performed. Preferably, the same batch was examined in Method A and Method B. Data was not averaged across different batches of an example compound.
# Target sequence in this assay (Q99500 whole entry, species assumed): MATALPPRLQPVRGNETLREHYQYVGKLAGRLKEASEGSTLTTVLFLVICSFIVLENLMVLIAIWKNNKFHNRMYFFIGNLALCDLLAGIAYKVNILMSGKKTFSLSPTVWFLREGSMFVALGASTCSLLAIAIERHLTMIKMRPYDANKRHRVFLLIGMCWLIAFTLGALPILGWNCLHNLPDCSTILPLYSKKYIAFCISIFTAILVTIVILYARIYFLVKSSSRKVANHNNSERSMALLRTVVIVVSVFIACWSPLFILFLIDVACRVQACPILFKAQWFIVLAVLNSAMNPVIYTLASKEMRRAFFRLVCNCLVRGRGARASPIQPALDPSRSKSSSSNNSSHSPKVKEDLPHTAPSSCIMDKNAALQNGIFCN
# S1P1 [2] = target: T2, S1P1 (Homo sapiens, UniProt P21453); test: Method B: Receptor [35S] GTPγS SPA Binding Assay, membranes from S1P1 transfected CHO cells; type: biochemical; design: expressed in transfected cells; host or cells: S1P1/CHO cells
# T2 sequence (P21453 whole entry): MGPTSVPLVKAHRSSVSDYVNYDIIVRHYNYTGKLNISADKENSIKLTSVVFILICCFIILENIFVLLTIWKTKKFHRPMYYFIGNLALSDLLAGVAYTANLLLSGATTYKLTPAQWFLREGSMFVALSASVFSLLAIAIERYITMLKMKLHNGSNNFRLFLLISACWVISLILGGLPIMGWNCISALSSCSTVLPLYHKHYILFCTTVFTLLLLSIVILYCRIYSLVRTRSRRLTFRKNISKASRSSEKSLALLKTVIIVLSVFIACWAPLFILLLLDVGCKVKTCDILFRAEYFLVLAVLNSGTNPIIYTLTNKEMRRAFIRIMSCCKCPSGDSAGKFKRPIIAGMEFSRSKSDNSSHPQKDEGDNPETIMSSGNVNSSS
# Method: as §1, §2
# S1P1 [3] = target: T2, S1P1; test: S1P1 Binding Assay (33P-S1P ligand competition, membranes from CHO cells); design: expressed in transfected cells; host or cells: CHO cells; settings: membranes of CHO cells expressing human S1P1; 0.03 nM 33P-S1P; 60 min room temperature
# Method: Membranes were prepared from CHO cells expressing human S1P1. Cells were dissociated in buffer containing 20 mM HEPES, pH 7.5, 50 mM NaCl, 2 mM EDTA and Protease Inhibitor cocktail (Roche), and disrupted on ice using the Polytron homogenizer. The homogenate was centrifuged at 20,000 rpm (48,000 g) and the supernatant was discarded. The membrane pellets were resuspended in buffer containing 50 mM HEPES, pH 7.5, 100 mM NaCl, 1 mM MgCl2, 2 mM EDTA and stored in aliquots at −80° C. after protein concentration determination.
# Membranes (2 μg/well) and 0.03 nM final concentration of ^33P-S1P ligand (1 mCi/ml, American Radiolabeled Chemicals) were added to the compound plates. Binding was performed for 60 min at room temperature, terminated by collecting the membranes onto GF/B filter plates, and radioactivity was measured by TOPCOUNT®. The competition data of the test compounds over a range of concentrations was plotted as percentage inhibition of radioligand specific binding. The IC50 is defined as the concentration of competing ligand needed to reduce specific binding by 50%.
# Compounds of the present invention and Comparative Compound A were tested in the S1P1 binding assay described hereinabove and the results rounded to two digits, shown in Table A were obtained. In some instances, the value is an average of multiple experiments where N is the number of experiments conducted that provided satisfactory dose response curves. When more than one batch of an example was tested, the value presented is from the batch which allowed a comparison of GTPγS S1P1 and GTPγS S1P3 in Method A (Data shown in Table B). Data was not averaged across different batches of an example compound.
# circulating lymphocytes [4] = test: Blood Lymphocyte Reduction Assay (BLR) in mice; type: in vivo; settings: BALB/c mice, oral, vs vehicle group
# Method: (§3) Lewis rats or BALB/c mice were dosed orally with test article (as a solution or suspension in the vehicle) or vehicle alone (polyethylene glycol 300, “PEG300”). Blood was drawn at 4 hr and 24 h by retro-orbital bleeding. Blood lymphocyte counts were determined on an ADVIA® 120 Hematology Analyzer (Siemens Healthcare Diagnostics). The results were measured as a reduction in the percentage of circulating lymphocytes as compared to the vehicle treated group at the 4 hr and 24 hr measurement. The results represent the average results of all animals within each treatment group (n=3-4).
# (§4) Examples 1 and 2 were tested in the Blood Lymphocyte Reduction assay (BLR) described hereinabove and the results are shown in Table D for rats and Table E for mice.
# circulating lymphocytes [5] = test: Blood Lymphocyte Reduction Assay (BLR) in rats; type: in vivo; settings: Lewis rats, oral, vs vehicle group
# Method: as §3, §4
# S1P3 [6] = target: T1, S1P3; test: Method A: Receptor [35S] GTPγS Binding Assay, membranes from EDG3-Ga15-bla HEK293T cells; type: biochemical; design: expressed in transfected cells; host or cells: EDG3-Ga15-bla HEK293T cells; settings: EDG3-Ga15-bla HEK293T cell membranes
# Method: (§5) Compounds were loaded in a 384 Falcon v-bottom plate (0.5 μl/well in a 3-fold dilution). Membranes prepared from S1P1/CHO cells or EDG3-Ga15-bla HEK293T cells were added to the compound plate (40 μl/well, final protein […]) with MULTIDROP®. [^35S]GTP (1250 Ci/mmol, Perkin Elmer) was diluted in assay buffer: 20 mM HEPES, pH7.5, 10 mM MgCl2, 150 mM NaCl, 1 mM EGTA, 1 mM DTT, 10 μM GDP, 0.1% fatty acid free BSA, and 10 mg/ml Saponin to 0.4 nM. 40 μl of the [^35S] GTP solution was added to the compound plate with a final concentration of 0.2 nM. The reaction was kept at room temperature for 45 min. At the end of incubation, all the mixtures in the compound plate were transferred to a 384 well FB filter plates via GPCR robot system. The filter plate was washed with water 4 times by using the modified manifold Embla plate washer and dried at 60° C. for 45 min. 30 μl of MicroScint 20 scintillation fluid was added to each well for counting at Packard TOPCOUNT®. EC50 is defined as the agonist concentration that corresponds to 50% of the Ymax (maximal response) obtained for each individual compound tested.
# as §2
# Target sequence in this assay (Q99500 whole entry): as the sequence (Q99500 whole entry, species assumed) above
# S1P1 [7] = target: T2, S1P1; test: Method A: Receptor [35S] GTPγS Binding Assay, membranes from S1P1/CHO cells; type: biochemical; design: expressed in transfected cells; host or cells: S1P1/CHO cells
# Method: as §5, §2
# circulating lymphocytes [8] = settings: animals and humans; cited from earlier work
# [9] = clinical studies, first 24 hours of treatment; cited from earlier work
smiles,measurement,setting,value
"O=C(O)C1CN(Cc2ccc(-c3noc(-c4noc(-c5ccccc5)c4C(F)(F)F)n3)cc2)C1 [Example 2, 1-(4-(5-(5-Phenyl-4-(trifluoromethyl)isoxazol-3-yl)-1,2,4-oxadiazol-3-yl)benzyl)azetidine-3-carboxylic acid]",EC50,S1P3 [1],350 nM
same,EC50,"S1P1 [2]; Method B SPA, S1P1 transfected CHO cell membranes, NC = a satisfactory dose response curve was not obtained",0.076 nM
same,GTPγS S1P3/S1P1 (Method B),"S1P1 [2]; ratio of GTPγS S1P3 EC50 to GTPγS S1P1 EC50, Method B","4,600"
same,IC50,S1P1 [3],0.05 nM
same,% reduction in lymphocytes at 4 hr.,circulating lymphocytes [4]; 0.001 mg/kg,−26%
same,% reduction in lymphocytes at 24 hr.,circulating lymphocytes [4]; 0.001 mg/kg,17%
same,% reduction in lymphocytes at 4 hr.,circulating lymphocytes [4]; 0.01 mg/kg,−4%
same,% reduction in lymphocytes at 24 hr.,circulating lymphocytes [4]; 0.01 mg/kg,15%
same,% reduction in lymphocytes at 4 hr.,circulating lymphocytes [4]; 0.1 mg/kg,70%
same,% reduction in lymphocytes at 24 hr.,circulating lymphocytes [4]; 0.1 mg/kg,62%
same,% reduction in lymphocytes at 4 hr.,circulating lymphocytes [4]; 1.0 mg/kg,83%
same,% reduction in lymphocytes at 24 hr.,circulating lymphocytes [4]; 1.0 mg/kg,84%
same,% reduction in lymphocytes at 4 hr.,circulating lymphocytes [5]; 0.03 mg/kg,70%
same,% reduction in lymphocytes at 24 hr.,circulating lymphocytes [5]; 0.03 mg/kg,56%
same,% reduction in lymphocytes at 4 hr.,circulating lymphocytes [5]; 0.3 mg/kg,80%
same,% reduction in lymphocytes at 24 hr.,circulating lymphocytes [5]; 0.3 mg/kg,79%
same,% reduction in lymphocytes at 4 hr.,circulating lymphocytes [5]; 1.0 mg/kg,84%
same,% reduction in lymphocytes at 24 hr.,circulating lymphocytes [5]; 1.0 mg/kg,85%
same,EC50,S1P3 [6],3600 nM
same,EC50,"S1P1 [7]; Method A, S1P1/CHO cell membranes",1.7 nM
same,GTPγS S1P3/S1P1 (Method A),"S1P1 [7]; ratio of GTPγS S1P3 EC50 to GTPγS S1P1 EC50, Method A","2,100"
CCCCCCCCc1ccc(CCC(N)(CO)CO)cc1 [FTY720],circulating lymphocytes,circulating lymphocytes [8],reduce circulating lymphocytes
same,bradycardia on treatment,[9],results in bradycardia
